Where two headings read alike, the source gives them in different places.
How the values were obtained:
[1] = biological target: T1, CIB1 and αIIb interaction (CIB1-GST : F-αIIb peptide) (Homo sapiens, UniProt Q99828); assay: FP assay, 1536-well qHTS format (primary and confirmatory screen); type: binding; details: for Curve Class (confirmatory screen) / CONFIRMATORY SCREEN Curve Class: qHTS curve class
T1 construct: made in house; host or cells: BL-21 plus RIL cells (E. coli)
T1 sequence (Q99828 1-191): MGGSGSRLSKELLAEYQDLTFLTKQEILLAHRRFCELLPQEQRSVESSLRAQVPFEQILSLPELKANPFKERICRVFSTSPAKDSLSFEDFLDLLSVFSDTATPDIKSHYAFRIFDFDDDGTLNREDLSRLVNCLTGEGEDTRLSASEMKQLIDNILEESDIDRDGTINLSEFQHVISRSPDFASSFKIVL

[2] = biological target: T2, GST-CIB1 : F-scrambled peptide (Homo sapiens, UniProt Q99828); assay: FP scrambled-peptide counter screen, 1536-well format; type: binding; details: for Curve Class (counterscreen) / COUNTERSCREEN Curve Class: qHTS curve class
T2 construct: made in house; host or cells: BL-21 plus RIL cells (E. coli)
T2 sequence (Q99828 1-191): T1 sequence (Q99828 1-191)

[3] = Table S3, confirmatory screen, YES/NO call
[4] = Table S3, confirmatory screen, a negative sign marks inhibitory curves
[5] = Table S3, confirmatory screen, negative = inhibition
[6] = Table S3, confirmatory screen, read-out: IC50 [μM] (confirmatory screen)
[7] = qHTS primary screen hits, Table S2, negative = inhibition
[8] = qHTS primary screen hits, Table S2, negative sign = inhibitory curve, several classes where COUNT > 1
[9] = qHTS primary screen hits, Table S2, read-out: IC50
[10] = Table S3, counterscreen, a negative sign marks inhibitory curves
[11] = Table S3, counterscreen, negative = inhibition
[12] = Table S3, counterscreen, read-out: IC50 [μM] (counterscreen)
[13] = confirmatory screen, negative sign = inhibitory curve
[14] = confirmatory screen, read-out: IC50 [μM] (confirmatory screen)
[15] = qHTS primary screen hits, Table S2, negative sign = inhibitory curve
[16] = counterscreen, negative sign = inhibitory curve
[17] = counterscreen, read-out: IC50 [μM] (counterscreen)
[18] = confirmatory screen, YES/NO call
[19] = confirmatory screen, negative = inhibition
[20] = confirmatory screen, read-out: CONFIRMATORY SCREEN IC50
[21] = scrambled-peptide counterscreen
[22] = scrambled-peptide counterscreen, YES/NO call
[23] = qHTS FP screen hits, Table S2, negative = inhibition
[24] = qHTS FP screen hits, Table S2, one class per curve where COUNT > 1, negative sign = inhibitory curve
[25] = qHTS FP screen hits, Table S2, read-out: IC50

Row | Efficacy (%) [1, 7] [%] | Curve Class [1, 8] | SMILES | Curve Class (confirmatory screen) [1, 4] | Efficacy (%) (confirmatory screen) [1, 5] | IC50 [1, 9] [µM] | Curve Class (counterscreen) [2, 10] | Efficacy (%) (counterscreen) [2, 11] | IC50 [2, 12] [µM] | further results
1 | -26 | -2.4 | O=C([O-])c1c(Cl)c(Cl)c(Cl)c(Cl)c1-c1c2cc(I)c(=O)c(I)c-2oc2c(I)c(O)c(I)cc12.[Na+] [NCGC00159508-05] | – | 261 | 13.6 | – | 311 | 44.7 | –
2 | -57 | -3 | OCc1ccc(-c2ccc(-c3ccc(CO)s3)o2)s1 [NCGC00159570-01] | 2.4 | 58 | 34.1 | – | 97 | 50.1 | –
3 | – | – | CC(C)Oc1cccc(NC(=O)c2ccccc2C(F)(F)F)c1 [NCGC00160537-04] | – | – | 100 | – | -39 | 39.8 | Confirm? (counterscreen) ([2]; Table S3, counterscreen, YES/NO call): YES
4 | -25 | -1.4 | O=[N+]([O-])c1ccc(O)c2ncccc12 [NCGC00160664-03] | – | – | 31.6 | – | – | – | CONFIRMATORY SCREEN Efficacy (%) ([1]; confirmatory screen): 0%; CONFIRMATORY SCREEN Curve Class ([1]; confirmatory screen): 4; COUNTERSCREEN Efficacy (%) ([2]; counterscreen): -13%; COUNTERSCREEN Curve Class ([2]; counterscreen): 4
5 | -24 | – | COc1cccc2nc(-c3cccs3)nc(NN3C(=O)C=C(C)C3=O)c12 [NCGC00161703-02] | – | – | 3 | – | – | – | Efficacy (%) (confirmatory screen) ([1]; confirmatory screen): -63%; Confirm? (confirmatory screen) ([1]; confirmatory screen, YES/NO): YES; Curve Class (confirmatory screen) [1, 13]: -1.4; IC50 [1, 14]: 8.9 µM; Curve Class [1, 15]: -1.4; Efficacy (%) (counterscreen) ([2]; counterscreen): -30%; Curve Class (counterscreen) [2, 16]: -1.4; IC50 [2, 17]: 17.8 µM
6 | -38 | -1.2 | CO[C@@]12[C@H](COC(N)=O)C3=C(C(=O)C(C)=C(N)C3=O)N1C[C@@H]1N[C@@H]12 [NCGC00163468-05] | 4 | -31 | 25.1 | 3 | 95 | 39.8 | –
7 | – | – | COC[C@H]1OC(=O)c2coc3c2[C@@]1(C)C1=C(C3=O)[C@@H]2CCC(=O)[C@@]2(C)C[C@H]1OC(C)=O [NCGC00163485-03] | – | – | – | – | – | – | IC50 [1, 14]: 28.2 µM; Efficacy (%) (counterscreen) ([2]; counterscreen): -20%; Confirm? (counterscreen) ([2]; counterscreen, YES/NO): YES; Curve Class (counterscreen) [2, 16]: 4
8 | – | – | O=C1c2cccc(O)c2C(=O)c2c(O)cc(CO)cc21 [NCGC00163510-03] | 4 | -18 | – | 4 | -8 | – | Efficacy (%) [1, 23]: -33%; Curve Class [1, 24]: -1.2; IC50 [1, 25]: 9.6 µM
9 | – | – | O=C(O)Cc1ccc(CCNS(=O)(=O)c2ccc(Cl)cc2)cc1 [NCGC00165787-03] | – | – | – | – | – | – | CONFIRMATORY SCREEN Efficacy (%) ([1]; confirmatory screen): 14%; CONFIRMATORY SCREEN Curve Class ([1]; confirmatory screen): 4; Efficacy (%) [1, 23]: -61%; Curve Class [1, 24]: -2.2; IC50 [1, 25]: 79.4 µM; COUNTERSCREEN Efficacy (%) ([2]; counterscreen): 0%; COUNTERSCREEN Curve Class ([2]; counterscreen): 4
10 | – | – | Cc1cc(C(C#N)c2ccc(Cl)cc2)c(Cl)cc1NC(=O)c1cc(I)cc(I)c1O (stereo not drawn) [NCGC00166312-02] | 4 | -32 | – | – | 117 | 31.6 | IC50 ([1]; IC50 [μM], qHTS FP screen hits, Table S2): 27 µM; Efficacy (%) [1, 23]: -35%
11 | -66 | -2.2 | O=C1Nc2cc(Cl)ccc2Nc2cscc21 [NCGC00167991-01] | – | – | 79.4 | – | – | – | Efficacy (%) (confirmatory screen) ([1]; confirmatory screen): -75%; Confirm? (confirmatory screen) ([1]; confirmatory screen, YES/NO): YES; Curve Class (confirmatory screen) [1, 13]: -3; Efficacy (%) (counterscreen) ([2]; counterscreen): -57%; Curve Class (counterscreen) [2, 16]: -3; IC50 [2, 17]: 50.1 µM
12 | -56 | -2.2 | COC(=O)c1scc2c(O)cc(C(F)(F)F)nc12 [NCGC00168006-01] | -3 | -58 | 50.1 | -3 | -67 | 79.4 | Confirm? (confirmatory screen) [1, 3]: YES; IC50 [1, 6]: 70.8 µM
13 | – | – | COc1c(O)cccc1[C@H](O)C1CCN(CCc2ccc(F)cc2)CC1 [NCGC00168042-01] | -2.4 | -89 | – | -2.1 | -83 | 50.1 | Confirm? (confirmatory screen) [1, 3]: YES; IC50 [1, 6]: 50.1 µM

Row | SMILES | Efficacy (%) [1, 7] [%] | Curve Class [1, 8] | Curve Class (confirmatory screen) [1, 4] | Efficacy (%) (confirmatory screen) [1, 5] | IC50 [1, 9] [µM] | Curve Class (counterscreen) [2, 10] | Efficacy (%) (counterscreen) [2, 11] | IC50 [2, 12] [µM] | further results
14 | CC(O)C(=O)O.CCOc1ccc2nc3cc(N)ccc3c(N)c2c1.O [NCGC00096056-02] | -129 | -2.1 | -2.1 | -162 | 44.7 | -2.1 | -204 | 31.6 | Confirm? (confirmatory screen) [1, 3]: YES; IC50 [1, 6]: 25.1 µM
15 | O=C1OC(c2ccc(O)c(S(=O)(=O)[O-])c2)(c2ccc(O)c(S(=O)(=O)[O-])c2)c2c(Br)c(Br)c(Br)c(Br)c21.[Na+].[Na+] [NCGC00159391-03] | -32 | -1.4 | 4 | -20 | 15.8 | – | 31 | 50.1 | –
16 | CO[C@H](C(=O)[C@@H](O)[C@@H](C)O)[C@@H]1Cc2cc3cc(C[C@H]4C[C@H](O[C@H]5C[C@@H](O)[C@H](O)[C@@H](C)O5)[C@@H](O)[C@@H](C)O4)c(C)c(O)c3c(O)c2C(=O)[C@H]1O[C@@H]1C[C@H](O[C@@H]2C[C@H](O[C@@H]3C[C@](O)(CO)[C@@H](O)[C@H](C)O3)[C@@H](O)[C@H](C)O2)[C@@H](O)[C@H](C)O1 [NCGC00162423-04] | -51 | -2.2 | -2.1 | -183 | 24.1 | -1.1 | -181 | 15.8 | Confirm? (confirmatory screen) [1, 3]: YES; IC50 [1, 6]: 31.6 µM
17 | Cc1ccc(C(=O)Nc2ccc(S(=O)(=O)O)c3cc(S(=O)(=O)O)cc(S(=O)(=O)O)c23)cc1NC(=O)c1cccc(NC(=O)Nc2cccc(C(=O)Nc3cc(C(=O)Nc4ccc(S(=O)(=O)O)c5cc(S(=O)(=O)O)cc(S(=O)(=O)O)c45)ccc3C)c2)c1 [NCGC00163318-03] | -22 | – | – | – | 0.7 | – | – | – | CONFIRMATORY SCREEN Confirm? [1, 18]: YES; CONFIRMATORY SCREEN Curve Class [1, 13]: -1.4; CONFIRMATORY SCREEN Efficacy (%) [1, 19]: -15%; IC50 [1, 20]: 7.9 µM; Curve Class [1, 15]: -1.4; COUNTERSCREEN Efficacy (%) [2, 21]: 16%; COUNTERSCREEN Confirm? [2, 22]: YES; COUNTERSCREEN Curve Class [2, 21]: 4
18 | C[C@H]1COC2=C1C(=O)C(=O)c1c2ccc2c1CCCC2(C)C [NCGC00163650-02] | -26 | -2.4 | – | – | 30.4 | – | – | – | CONFIRMATORY SCREEN Efficacy (%) ([1]; confirmatory screen): 0%; CONFIRMATORY SCREEN Curve Class ([1]; confirmatory screen): 4; COUNTERSCREEN Efficacy (%) ([2]; counterscreen): -18%; COUNTERSCREEN Curve Class ([2]; counterscreen): 4
19 | O=c1oc2ccccc2c(O)c1C(CC(O)c1ccc(-c2ccc(Br)cc2)cc1)c1ccccc1 (stereo not drawn) [NCGC00163939-02] | -58 | -2.2 | – | – | 79.4 | – | – | – | CONFIRMATORY SCREEN Confirm? [1, 18]: YES; CONFIRMATORY SCREEN Curve Class [1, 13]: -1.2; CONFIRMATORY SCREEN Efficacy (%) [1, 19]: -37%; IC50 [1, 20]: 12.6 µM; COUNTERSCREEN Efficacy (%) [2, 21]: 109%; COUNTERSCREEN Confirm? [2, 22]: YES; COUNTERSCREEN Curve Class [2, 21]: 3; IC50 ([2]; scrambled-peptide counterscreen, read-out: COUNTERSCREEN IC50): 89.1 µM

Reference: article PMC11249646, “Small-Molecule Disruptors of the Interaction between Calcium- and Integrin-Binding Protein 1 and Integrin αIIbβ3 as Novel Antiplatelet Agents” (ACS Pharmacology & Translational Science, 2024)
